The term solubility denotes the dissolved amount per volume that the medium holds.

This is an account of results in patent US20210283099A1, “CDC7 KINASE INHIBITORS AND USES THEREOF” (SLOAN-KETTERING INSTITUTE FOR CANCER RESEARCH, priority 2010, published 2021).

Molecules are shown by their SMILES. Values after ≈ are worked out from the molar mass of the structure shown.

A short description of data set [1]: Liver microsome stability test. The class given is in vitro ADME. The procedure: The stability of granaticin A was determined in mouse and human liver microsomes.
(Liver microsomes are vesicles of endoplasmic reticulum, rich in cytochrome P450 enzymes.)

The test system of data set [2] is Ph-ALL3.1 cells. The experiment in a line: Release of elutriated G1 phase cells, 3H-thymidine incorporation and FACS. Conditions: G1 phase fraction released into granaticin A. Details: dose or concentration left out as unconfirmed. In kind it is cell-based, human. On the procedure:
FIG. 2. Elutriation profile of PhALL3.1: Centrifugal elutriation was used to synchronize the recently established Philadelphia chromosome positive acute lymphoblastic leukemia cell line (PhALL3.1). An asynchronous culture (4 liters) was pelleted, resuspended in a small volume (20 ml), and loaded into the elutriation rotor as outlined by the manufacturer (Beckman). After equilibration and washing, cell samples were eluted from the rotor based on size with the smaller cells exiting the rotor first. Ten fractions (250 ml) were taken across the gradient and standard FACS analysis performed on 10 ml of each fraction looking at DNA content. G1, S, and G2 phase cell populations are indicated in the asynchronous profile. This method allows for isolation of phase specific cell populations.
FIG. 3. […] Ph-ALL3.1 cells were subjected to standard centrifugal elutriation conditions and the G1 phase fraction, as determined by FACS analysis (Time Zero), was released into granaticin A ([…]) or vehicle control (DMSO) for the indicated times. Cell samples post-release into granaticin A or vehicle control (DMSO) were pulsed for 2 hours with ^3H-thymidine and samples were collected, washed, and acid precipitable counts were measured by scintillation counting. X-axis is time post-release into compound or control (in hours) and y-axis is counts per minute (CPM). […]
On the technique in general: Dividing cells build labelled thymidine or BrdU into new DNA.

The test system of data set [3] is Ph-ALL3.1 cells. The experiment in a line: Release of elutriated S phase cells, FACS and 3H-thymidine incorporation. The class given is cell-based, human. The procedure: FIG. 5. […] Ph-ALL3.1 cells were subjected to standard centrifugal elutriation conditions and the S phase fraction, as determined by FACS analysis, was released into granaticin A (1 μM) or vehicle control (DMSO) for the indicated times and FACS analysis was performed. […] Apoptosis was confirmed in additional independent experiments. Asynchronous and time zero correspond to an asynchronous cell sample and the elutriated S phase fraction prior to release, respectively.
FIG. 6. Thymidine incorporation in S-phase: ^3H-Thymidine incorporation during the release experiment outlined in the slide above. Cell samples post-release into granaticin A or vehicle control (DMSO) were pulsed for 2 hours with ^3H-thymidine, and samples were collected, washed, and acid precipitable counts were measured by scintillation counting. X-axis is time post-release into compound or control (in hours) and y-axis is counts per minute (CPM).

Another data set has as its system Mcm2 phosphorylation. Put plainly: Western blotting of Mcm2 after S phase release. The class given is cell-based, human. Conditions: PhALL3.1 cells, as early as 2 hours post release. From the text:
FIG. 7. Granaticin A Inhibits Mcm2 phosphorylation: Following synchronization in S phase and release, PhALL3.1 cells from the experiments of FIG. 5 and FIG. 6 were collected at the indicated times post release into either control (DMSO) or granaticin A and extracts were subjected to Western blotting to detect total Mcm2 protein.

For another data set, the target named is human recombinant Cdc7 (Homo sapiens, UniProt O00311). Put plainly: In vitro kinase reaction, Mcm2 phosphorylation by Cdc7. In kind it is biochemical. Conditions: radioactive ATP, SDS-PAGE, autoradiography. The procedure:
FIG. 8. Mcm2 phosphorylation by Cdc7: Phosphorylated forms of Mcm2 migrate […] in SDS-PAGE gels. Using highly purified human recombinant Cdc7 and Mcm2, standard in vitro kinase reactions were performed in the presence of radioactive ATP and products were separated on SDS-PAGE gels, stained with silver, and autoradiography was performed to detect phosphorylated forms of Mcm2.

Data set [4] is described as follows: Standard solubility studies. In kind it is physicochemical. On the procedure:
Standard solubility studies were conducted with granaticin B. In aqueous solution, 4.0 mg/ml of granaticin B is soluble. In alcohol, >188 mg/ml of granaticin B is soluble. In methanol, >252 mg/ml of granaticin B is soluble.

The test system of the next data set is PhALL3.1. In kind it is in vivo. From the text: FIGS. 20A-20C. Granaticin B Inhibits Ph-ALL3. 1 growth in vivo: Given the rapid intravenous clearance of granaticin A by the liver, granaticin B was used in a continuous infusion experiment with the PhALL3.1 animal model. Diffusion pumps containing granaticin B were surgically implanted in the flanks of 5 cohorts of mice on day +3 after injection of 5 million cells via the tail veins, and the drug (or control—C-DMSO) at the indicated concentration was allowed to diffuse for seven days before pump removal. The mice were imaged on day 12 (FIGS. 20A-20B) and tumor volume remaining was calculated (FIG. 20C).

For data set [5], the system named is primary patient leukemia samples. Put plainly: Inhibition of cellular proliferation, all primary patient leukemia samples. The class given is cell-based, human. On the procedure:
FIGS. 16A-16B. Granaticin A and Granaticin B inhibit multiple tumor types: The indicated cell lines and primary patient samples were tested against the compounds listed in standard cytotoxicity assays (12 point dose response using Alamar blue reduction as an indicator of cell viability). Assays were done in triplicate and IC50 determinations were run in 12-point serial dilutions from […] to 5 nM. […] These include ras and EGFR gatekeeper mutation containing cell lines in addition to p53 mutant cell lines and other known chemotherapy resistant cell lines. Specifically, this included multi-drug resistance phenotype (MDR-overexpressing) cell lines from multiple hematologic and solid tumor cell lines. Table 1 highlights a series of primary patient leukemia samples-both acute and chronic and treatment naïve and refractory tested against granaticins A and B and Derivatives 1 and 2 (see Examples).
Table 1 highlights a series of primary patient leukemia samples-both acute and chronic and treatment naïve and refractory and the effect of granaticin A, granaticin B, derivative 1, and derivative 2 to inhibit cellular proliferation. […]

Sequence of human recombinant Cdc7 (O00311 whole entry): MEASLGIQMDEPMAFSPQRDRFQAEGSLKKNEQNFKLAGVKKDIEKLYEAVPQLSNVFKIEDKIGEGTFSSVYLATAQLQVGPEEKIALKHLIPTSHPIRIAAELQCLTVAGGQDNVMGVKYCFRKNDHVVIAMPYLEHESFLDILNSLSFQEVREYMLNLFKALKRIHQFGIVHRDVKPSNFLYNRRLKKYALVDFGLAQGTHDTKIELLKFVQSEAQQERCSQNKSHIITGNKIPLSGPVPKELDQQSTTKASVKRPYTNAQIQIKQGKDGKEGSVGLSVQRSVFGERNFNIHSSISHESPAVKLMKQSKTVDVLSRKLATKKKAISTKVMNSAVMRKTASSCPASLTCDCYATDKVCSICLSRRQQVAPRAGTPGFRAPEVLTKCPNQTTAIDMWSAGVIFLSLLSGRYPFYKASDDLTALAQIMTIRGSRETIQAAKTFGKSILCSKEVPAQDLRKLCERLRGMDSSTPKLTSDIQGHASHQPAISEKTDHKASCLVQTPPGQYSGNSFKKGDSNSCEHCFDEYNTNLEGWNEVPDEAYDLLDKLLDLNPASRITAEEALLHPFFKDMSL
Sequence of human recombinant Cdc7 (Q9UBU7 whole entry partner): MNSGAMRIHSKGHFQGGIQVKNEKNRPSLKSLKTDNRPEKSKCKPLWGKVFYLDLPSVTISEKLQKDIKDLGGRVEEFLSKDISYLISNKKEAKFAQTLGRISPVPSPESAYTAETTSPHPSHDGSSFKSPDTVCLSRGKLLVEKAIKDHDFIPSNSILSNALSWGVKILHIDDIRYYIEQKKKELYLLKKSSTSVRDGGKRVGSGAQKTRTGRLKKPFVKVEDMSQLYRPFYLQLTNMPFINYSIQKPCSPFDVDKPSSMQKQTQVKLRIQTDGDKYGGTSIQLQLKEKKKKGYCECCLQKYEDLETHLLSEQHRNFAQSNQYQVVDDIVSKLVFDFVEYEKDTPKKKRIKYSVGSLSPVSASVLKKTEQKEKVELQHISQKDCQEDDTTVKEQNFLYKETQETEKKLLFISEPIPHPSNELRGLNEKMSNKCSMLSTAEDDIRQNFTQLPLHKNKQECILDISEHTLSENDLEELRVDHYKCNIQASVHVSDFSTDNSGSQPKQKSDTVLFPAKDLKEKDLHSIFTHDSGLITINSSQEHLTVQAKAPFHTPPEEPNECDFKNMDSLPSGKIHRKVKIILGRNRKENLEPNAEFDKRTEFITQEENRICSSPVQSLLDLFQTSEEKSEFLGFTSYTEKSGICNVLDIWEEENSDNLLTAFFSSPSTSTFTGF

Take `CC1OC2CC(O)C1(O)c1c(O)c3c(c(O)c12)C(=O)C1=C(C3=O)[C@H](C)O[C@H]2CC(=O)O[C@@H]12` (some centres unmarked) [Granaticin A, granaticin A]: in data set [1] (human liver microsomes), the recovery at 30 min was 23.9% and the recovery at 60 min was 12%. In data set [1] (mouse liver microsomes), this compound showed a recovery at 30 min of 3.68% and a recovery at 60 min of 3.84%. Further, in the data set with Ph-ALL3.1 cells [2], the 3H-thymidine incorporation result is given as “stop incorporating ^3H-thymidine” and the cell cycle profile result is reported as “G1 phase arrest”. Besides, in the data set with Ph-ALL3.1 cells [3] (S phase fraction released into 1 μM), the “cell cycle profile by FACS” value was “cell cycle arrest and apoptosis”. For the same compound, the 3H-thymidine incorporation entry with Ph-ALL3.1 cells [3] (S phase fraction, 2 hours pulses post-release) is on record as “markedly reduced incorporation”. The “Mcm2 phosphorylation in cells” value in the data set on Mcm2 phosphorylation is recorded as “inhibition of Mcm2 phosphorylation”. For the same compound, the “Cdc7 kinase activity on Mcm2” value at human recombinant Cdc7 is on record as “small molecule inhibitor of Cdc7 kinase activity”.

Regarding `CC1OC2CC(O[C@H]3CC[C@H](O)[C@H](C)O3)C1(O)c1c(O)c3c(c(O)c12)C(=O)C1=C(C3=O)[C@H](C)O[C@H]2CC(=O)O[C@@H]12` (some centres unmarked) [Granaticin B, granaticin B], the solubility in data set [4] (organic solvent or mixture, in alcohol) was more than 188 mg/mL; in data set [4] (organic solvent or mixture, in methanol) it was more than 252 mg/mL; in data set [4] (water, in aqueous solution) it was 4 mg/mL (≈ 7.16 mM). Also, the tumor reduction with PhALL3.1 (highest dose, diffusion pump for seven days from day +3, imaged on day 12) amounted to 95%. For the same compound, in the data set on PhALL3.1 (mouse, in vivo), the “organ toxicity at necropsy” value is on record as “without obvious organ toxicity”. Besides, in data set [5] (against all the samples tested), the “activity relative to granaticin A” value was “approximately one log”. Besides, in data set [5] (all the samples tested), the “range of inhibition of cellular proliferation” value is given as “low nanomolar range”.
